Laboratory results: patent US7862815B2, “Methods for inhibiting angiogenesis with inhibitors of proadrenomedullin N-terminal 20 peptide (PAMP)” (The United States of America as represented by the …, priority 2002, dated 2011)

How the values were obtained:
[1] = tested on: human endothelial cells; assay: Cord formation assay on matrigel; type: cell-based; conditions: overnight incubation on matrigel, FIG. 6C
Method: Human endothelial cells were seeded at 2.0×10^5 cells per well over a solid layer of matrigel covering the bottom of a 24-well plate in the presence or absence of the test peptides as described (Nam et al., Phytother. Res. 17, 107-111). After an overnight incubation, the tubular structures were photographed (three pictures per well) and the number of knots per photographic field were counted as a measure of lattice complexity.

[2] = tested on: athymic nude mice; assay: DIVAA with angioreactors, Example 2 (peptides in matrigel); type: in vivo; conditions: for concentration range at which angiogenesis begins: equimolar comparison, FIG. 4G
Method: Analysis and quantitation of angiogenesis was done using DIVAA as previously described (Martinez et al., J. Natl. Cancer Inst., 21; 94(16):1226-37, 2002; Guedez et al., Am. J. Pathol. 162, 1431-1439, 2003). Briefly, 10 mm long surgical-grade silicone tubes with only one end open (angioreactors) were filled with 20 μl of matrigel alone or mixed with AM, bFGF, VEGF, PAMP, and/or PAMP(12-20) at the indicated concentrations. Human lung cancer cell lines (see below) were also premixed with matrigel alone or in combination with PAMP(12-20) at 10,000 cells per angioreactor. After the matrigel solidified, the angioreactors were implanted into the dorsal flanks of anesthetized athymic nude mice (NCI colony). After eleven days, the mice were injected intravenously with 25 mg/ml FITC-dextran (100 μl/mouse, Sigma) 20 minutes before removing the angioreactors. Photographs of the implants were taken for visual examination of angiogenic response. Quantitation of neovascularization in the angioreactors was determined as the amount of fluorescence trapped in the implants and was measured in a HP Spectrophotometer (Perkin Elmer).
To further characterize this observation, an […] assay was employed that allows for more precise quantitation of angiogenic properties: the directed […] angiogenesis assay or DIVAA (Martinez et al., J. Natl. Cancer Inst., 21; 94(16): 1226-37, 2002; Guédez et al., Am. J. Pathol. 162, 1431-1439, 2003). The assay involves implanting small silicone capsules carrying the test substances under the skin of nude mice. After eleven days, the mice are injected with a specific amount of FITC-dextran, and the volume of blood circulating through the implant is quantified by measuring the fluorescence in the capsule. In addition, the new blood vessels growing into the silicone tube can be seen directly by transparency (FIG. 4A-F). […] The extent of the angiogenic response can be seen clearly when this response is compared with the negative control (FIG. 4A). The angiogenic response elicited by PAMP was dose-dependent (FIG. 4C-G). When compared to AM and VEGF responses at equimolar concentrations, a clear difference was observed.

[3] = tested on: Human dermal microvascular endothelial cells; assay: Calcium measurements (ATP-induced calcium flux); type: cell-based; conditions: 10 nM PAMP, 1 mM ATP
Method: Human dermal microvascular endothelial cells were obtained from Cell Applications, Inc. and cultured in 96-well plates at 1.0×10^5 cells per well. The cells were loaded for 60 minutes at room temperature with the fluorescent dye FLIPR (Molecular Devices) and then transferred to the FlexStation II (Molecular Devices) for analysis. The test compounds were prepared in another plate at a concentration of 5× and were added to the proper wells by the robotic arm of the FlexStation II. Fluorescence was measured every five seconds in each well and recorded. One mM ATP (Sigma) was used as a calcium agonist (Lau et al., Life Sci. 73, 20 19-2028, 2003).

| Substance | efficiency in inducing cord formation (knots per field) [1] | concentration range at which angiogenesis begins [2] | effect on ATP-induced calcium response [3] | dose dependence of angiogenic response ([2]; FIG. 4C-G) | concentrations eliciting an angiogenic response ([2]; implants 11 days under the skin of nude mice) |
| --- | --- | --- | --- | --- | --- |
| vascular endothelial growth factor [VEGF] | most efficient | nanomolar concentrations | – | – | – |
| proadrenomedullin N-terminal 20 peptide (ARLDVASEFRKKWNKWALSR; listed as Homo sapiens) [PAMP, 20 amino-acid molecule originating from the post-translational processing of pre-proadrenomedullin; synthetic human, purchased from Bachem] | modest effect | femtomolar range | greatly reduced | dose-dependent | ≥ 1 femtomols/L |
| Adrenomedullin [AM] | – | nanomolar concentrations | – | – | – |
